Assay results published in patent US4877881A, “Process of preparing pyrazoles, isoxazoles and analogs thereof having activity as 5-lipoxygenase inhibitors” (Warner-Lambert Company, priority 1988, dated 1989).

Key:
[1] = molecular target: T1, 5-lipoxygenase (Rattus norvegicus, UniProt P12527); assay: ARBL Whole Cell 5-Lipoxygenase Assay in RBL-1 cells (LTB4 RIA); format: cell-based; conditions: RBL-1 intact cell 5-lipoxygenase; A23187 5 μM
T1 construct: ARBL/ARBC Whole Cell 5-Lipoxygenase and Cyclooxygenase Assays; endogenous in cells; host or cells: RBL-1 rat basophilic leukemia cells (American Type Culture Collection)
T1 sequence (P12527 1-673): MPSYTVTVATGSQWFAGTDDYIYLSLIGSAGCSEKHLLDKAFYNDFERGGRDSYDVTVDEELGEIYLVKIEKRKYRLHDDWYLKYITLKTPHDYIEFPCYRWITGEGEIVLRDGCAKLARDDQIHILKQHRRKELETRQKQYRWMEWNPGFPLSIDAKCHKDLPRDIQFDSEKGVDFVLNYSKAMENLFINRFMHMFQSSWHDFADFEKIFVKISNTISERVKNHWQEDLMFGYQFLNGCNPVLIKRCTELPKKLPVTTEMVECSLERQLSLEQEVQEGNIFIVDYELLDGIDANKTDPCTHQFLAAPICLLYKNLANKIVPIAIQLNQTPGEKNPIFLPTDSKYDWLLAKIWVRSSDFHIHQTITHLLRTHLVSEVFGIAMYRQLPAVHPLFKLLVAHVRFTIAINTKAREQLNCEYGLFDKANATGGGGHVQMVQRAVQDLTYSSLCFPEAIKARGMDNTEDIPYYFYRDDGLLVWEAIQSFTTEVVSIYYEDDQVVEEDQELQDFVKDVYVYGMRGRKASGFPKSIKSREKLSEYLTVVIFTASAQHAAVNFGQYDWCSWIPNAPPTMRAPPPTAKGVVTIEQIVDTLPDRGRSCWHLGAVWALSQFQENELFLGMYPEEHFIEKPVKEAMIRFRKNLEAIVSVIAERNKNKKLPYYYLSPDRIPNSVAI
Experimental: (§1) ARBL/ARBC Whole Cell 5-Lipoxygenase and Cyclooxygenase Assays
(§2) The rat basophilic leukemia cell line (RBL-1) was obtained from the American Type Culture Collection (Rockville, Md.).
(§3) Radioimmuno assay (RIA) kits of LTB4 and PGF2α were obtained from Amersham (Arlington Heights, Ill.) and Seragen (Boston, Mass.) respectively.
(§4) All tissue culture media were obtained from GIBO (Gran Island, N.Y.).
(§5) RBL-1 cells were grown in culture (suspension) in Eagle's minimum essential medium supplemented with 12% fetal bovine serum and 1:100 antibiotic-antimycotic mixture at 37° C. in an incubator supplied with air-5% carbon dioxide. Cells were harvested by centrifugation. They were washed with cold phosphate buffered saline pH 7.4 (PBS; NaCl, 7.1 g; Na2 HOP4, 1.15 g; KH2 PO4, 0.2 g; and KCl, 0.2 g/L). […] Calcium ionophore A23187 (5 μM) was added and cells were incubated for seven minutes at 37° C. The reaction was stopped by chilling the tubes in ice for ten minutes. Cells were separated by centrifugation and the supernatant was stored at -20°. Aliquots (100 μl) were analyzed for LTB4 and PGF2α using radioimmuno assay kits as provided by the supplier.

[2] = molecular target: T2, cyclooxygenase (Rattus norvegicus, UniProt Q63921); assay: ARBC Whole Cell Cyclooxygenase Assay in RBL-1 cells (PGF2α RIA); format: cell-based; conditions: RBL-1 intact cell cyclooxygenase; A23187 5 μM
T2 construct: RBL-1 intact cell cyclooxygenase IC50 values; endogenous in cells; host or cells: RBL-1 rat basophilic leukemia cells (American Type Culture Collection)
T2 sequence (Q63921 27-602): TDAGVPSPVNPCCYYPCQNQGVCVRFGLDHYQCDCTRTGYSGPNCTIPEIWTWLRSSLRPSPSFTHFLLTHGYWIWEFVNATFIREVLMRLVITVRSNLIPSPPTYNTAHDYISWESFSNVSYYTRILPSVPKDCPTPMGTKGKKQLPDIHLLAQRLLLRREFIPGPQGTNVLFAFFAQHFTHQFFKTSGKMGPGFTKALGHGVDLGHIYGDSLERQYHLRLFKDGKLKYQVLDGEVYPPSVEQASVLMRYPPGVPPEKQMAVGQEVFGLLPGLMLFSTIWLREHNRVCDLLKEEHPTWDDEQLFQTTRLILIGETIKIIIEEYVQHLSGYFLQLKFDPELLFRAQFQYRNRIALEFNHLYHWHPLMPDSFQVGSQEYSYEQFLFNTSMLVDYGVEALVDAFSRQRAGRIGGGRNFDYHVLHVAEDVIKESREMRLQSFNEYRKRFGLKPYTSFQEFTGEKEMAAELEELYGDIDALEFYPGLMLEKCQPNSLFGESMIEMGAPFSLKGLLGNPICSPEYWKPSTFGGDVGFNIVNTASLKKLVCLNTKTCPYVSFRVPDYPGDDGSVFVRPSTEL
Experimental: as §1, §2, §3, §4, §5

Row | SMILES | IC50 [1] [nM] | IC50 [2] [µM]
1 | COc1cc(C=Cc2cc(C=Cc3ccc(O)c(OC)c3)[nH]n2)ccc1O [Example 1, 3,5-Bis[β-(4'-hydroxy-3'-methoxyphenyl)ethenyl]pyrazole] | 1600 | 2.5
2 | COc1cc(C=Cc2cc(C)n[nH]2)ccc1O [Example 5, 3-[β-(4'-Hydroxy-3'-methoxyphenyl)ethenyl]-5-methylpyrazole] | 800 | 13
3 | Cc1cc(C=Cc2ccc(O)c(Cl)c2)n[nH]1 [Example 7, 3-[β-(4'-Hydroxy-3'-chlorophenyl)ethenyl]-5-methylpyrazole] | 9500 | 6.8
